One assay addresses GCN2 kinase (Homo sapiens (Human), UniProt Q9P2K8). Briefly: GCN2 Enzyme Inhibition Assay (Transcreener ADP2 fluorescence polarization). It is filed as biochemical. The following applies: 280 μM ATP, 200 μM (RS)7 peptide, 4 nM GCN2, 25° C. A digest of the protocol:
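At 25 °C, GCN2 kinase (typical final concentration 4 nM) and (RS)7 peptide in Tris-HCl pH 7.5 buffer with MgCl2, NaCl and DTT were preincubated with compound for 10 min, then ATP was added for a 1 h reaction. ADP was read by FP with antibody/Alexa633 tracer. Non-linear tight-binding analysis gave IC50 and apparent Ki.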

The target of assay [1] is intracellular GCN2 (phosphorylation of the GCN2 substrate eIF2α) (Homo sapiens (Human), UniProt Q9P2K8). Nature of the assay: GCN2 Cellular Inhibition Assay (AlphaScreen SureFire P-eIF2α Ser51, borrelidin-treated U2OS cells). The assay is classed as cell-based. The following applies: 10 μM borrelidin, 1 h, phosphorylated eIF2α Ser51, read-out: GCN2 Biomarker (IC50). A digest of the protocol: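 Phospho-eIF2α (Ser51) measured by AlphaScreen SureFire in lysates of U2OS cells stimulated 1 h at 37 °C with 10 μM borrelidin alongside compound, 4-fold dilutions from 40 μM. Inhibition expressed as percent relative to borrelidin-alone controls.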
Sequence of intracellular GCN2 (phosphorylation of the GCN2 substrate eIF2α) (Q9P2K8 whole entry): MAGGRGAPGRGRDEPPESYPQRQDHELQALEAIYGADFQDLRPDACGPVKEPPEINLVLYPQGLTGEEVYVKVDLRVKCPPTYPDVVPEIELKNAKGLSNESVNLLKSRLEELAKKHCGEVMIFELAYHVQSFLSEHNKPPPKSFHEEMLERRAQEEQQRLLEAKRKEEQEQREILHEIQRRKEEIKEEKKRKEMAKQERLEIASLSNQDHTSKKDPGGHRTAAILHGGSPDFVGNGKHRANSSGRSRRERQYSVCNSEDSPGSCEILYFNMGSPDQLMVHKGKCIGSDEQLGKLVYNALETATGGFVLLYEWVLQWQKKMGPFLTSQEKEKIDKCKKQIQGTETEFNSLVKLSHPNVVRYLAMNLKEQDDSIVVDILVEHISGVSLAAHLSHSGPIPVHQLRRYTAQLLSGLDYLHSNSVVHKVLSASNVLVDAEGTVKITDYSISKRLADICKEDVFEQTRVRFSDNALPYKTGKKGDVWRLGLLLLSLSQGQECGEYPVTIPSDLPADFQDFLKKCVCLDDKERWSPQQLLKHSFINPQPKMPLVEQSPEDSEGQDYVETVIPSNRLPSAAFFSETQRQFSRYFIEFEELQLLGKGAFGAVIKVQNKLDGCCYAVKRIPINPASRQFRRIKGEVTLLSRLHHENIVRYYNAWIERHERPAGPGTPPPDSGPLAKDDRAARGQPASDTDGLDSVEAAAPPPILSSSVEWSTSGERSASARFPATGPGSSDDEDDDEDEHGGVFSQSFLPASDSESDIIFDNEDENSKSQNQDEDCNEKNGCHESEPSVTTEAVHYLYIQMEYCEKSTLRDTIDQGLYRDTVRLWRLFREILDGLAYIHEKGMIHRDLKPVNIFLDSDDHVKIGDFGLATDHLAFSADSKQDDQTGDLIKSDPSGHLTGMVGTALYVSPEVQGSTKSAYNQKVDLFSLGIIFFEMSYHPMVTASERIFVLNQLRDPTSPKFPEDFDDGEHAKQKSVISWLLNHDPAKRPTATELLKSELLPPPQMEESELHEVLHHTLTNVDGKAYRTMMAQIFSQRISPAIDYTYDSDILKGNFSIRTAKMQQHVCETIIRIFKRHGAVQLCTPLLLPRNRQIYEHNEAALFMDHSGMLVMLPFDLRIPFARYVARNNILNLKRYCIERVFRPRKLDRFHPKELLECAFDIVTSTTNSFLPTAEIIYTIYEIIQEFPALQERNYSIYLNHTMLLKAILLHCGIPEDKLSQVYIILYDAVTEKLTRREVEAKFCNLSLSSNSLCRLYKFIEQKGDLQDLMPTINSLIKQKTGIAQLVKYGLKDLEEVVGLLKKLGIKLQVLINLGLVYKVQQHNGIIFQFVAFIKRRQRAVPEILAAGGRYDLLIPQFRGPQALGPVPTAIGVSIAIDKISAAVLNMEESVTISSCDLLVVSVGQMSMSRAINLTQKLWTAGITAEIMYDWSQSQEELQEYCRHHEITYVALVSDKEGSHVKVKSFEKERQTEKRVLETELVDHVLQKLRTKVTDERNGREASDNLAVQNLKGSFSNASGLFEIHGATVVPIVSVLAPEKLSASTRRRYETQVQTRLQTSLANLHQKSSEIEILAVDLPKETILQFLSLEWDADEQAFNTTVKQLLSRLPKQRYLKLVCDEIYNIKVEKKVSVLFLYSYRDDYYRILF
A general note: Bead proximity is the source of the signal in Alpha formats.

Results on 23 molecules are retold here after patent US10793563B2, “GCN2 inhibitors and uses thereof” (Merck Patent GmbH, priority 2018, dated 2020).

Each structure is given as a SMILES string.

Sequence of GCN2 kinase (Q9P2K8 whole entry): as above

`C[C@@H]1CN(c2ccnc(-c3cnc4ccc(C(F)(F)F)cn34)n2)C[C@H](C)N1C(=O)CC1CCOCC1` [I-464, 1-(cis-2,6-dimethyl-4-(2-(6-(trifluoromethyl)imidazo[1,2-a]pyridin-3-yl)pyrimidin-4-yl)piperazin-1-yl)-2-(tetrahydro-2H-pyran-4-yl)ethan-1-one]: the IC50 (in general, the concentration that inhibits the measured activity by half) lay within 100 to 1000 nM against GCN2 kinase and 500 to 5000 nM in assay [1].

Regarding `FC(F)(F)c1ccc2ncc(-c3nccc(N4CCN(CC5CC5(F)F)C(c5cn[nH]c5)C4)n3)n2c1` (stereo not shown) [I-470, 3-(4-(4-((2,2-difluorocyclopropyl)methyl)-3-(1H-pyrazol-4-yl)piperazin-1-yl)pyrimidin-2-yl)-6-(trifluoromethyl)imidazo[1,2-a]pyridine], the IC50 against GCN2 kinase was below 10 nM; in assay [1] it was below 500 nM.

Take `FC(F)(F)c1ccc2ncc(-c3nccc(N4CCN(CC5CC56CCOCC6)C(c5cn[nH]c5)C4)n3)n2c1` (stereo not shown) [I-476, 4-[4-({6-oxaspiro[2.5]octan-1-yl}methyl)-3-(1H-pyrazol-4-yl)piperazin-1-yl]-2-[6-(trifluoromethyl)imidazo[1,2-a]pyridin-3-yl]pyrimidine]: the results for the IC50 (against GCN2 kinase; in assay [1]) were below 10 nM and below 500 nM, respectively.

Turning to `CC1(C)CC1CN1CCN(c2ccnc(-c3cnc4ccc(C(F)(F)F)cn34)n2)CC1c1cn[nH]c1` (stereo not shown) [I-477, 3-(4-(4-((2,2-dimethylcyclopropyl)methyl)-3-(1H-pyrazol-4-yl)piperazin-1-yl)pyrimidin-2-yl)-6-(trifluoromethyl)imidazo[1,2-a]pyridine], the values for the IC50 (at GCN2 kinase; in assay [1]) were 10 to 100 nM and below 500 nM, respectively.

On to `CS(=O)(=O)NC1CC(C(F)(F)F)CN(c2ccnc(-c3cnc4ccc(C(F)(F)F)cn34)n2)C1` (stereo not shown) [I-478, N-(5-(trifluoromethyl)-1-(2-(6-(trifluoromethyl)imidazo[1,2-a]pyridin-3-yl)pyrimidin-4-yl)piperidin-3-yl)methanesulfonamide], for which the IC50 on GCN2 kinase is 10 to 100 nM; in assay [1], below 500 nM.

Regarding `CS(=O)(=O)C1CC(N2CCN(c3ccnc(-c4cnc5ccc(C(F)(F)F)cn45)n3)C[C@H]2c2cn[nH]c2)C1` (stereo partly drawn) [I-490, 3-{4-[(R)-4-(3-Methanesulfonyl-cyclobutyl)-3-(1H-pyrazol-4-yl)-piperazin-1-yl]-pyrimidin-2-yl}-6-trifluoromethyl-imidazo[1,2-a]pyridine], the IC50 on GCN2 kinase was below 10 nM; in assay [1] it was below 500 nM.

With `CC1(C)CN(c2ccnc(-c3cnc4ccc(C(F)(F)F)cn34)n2)CCN1C(=O)C1CCC(=O)CC1` [I-492, 4-(2,2-dimethyl-4-(2-(6-(trifluoromethyl)imidazo[1,2-a]pyridin-3-yl)pyrimidin-4-yl)piperazine-1-carbonyl)cyclohexan-1-one], the IC50 was in the range of 10 to 100 nM against GCN2 kinase and 500 to 5000 nM in assay [1].

Consider `C[C@H](NS(C)(=O)=O)[C@@H]1[C@H](C)N(c2ccnc(-c3cnc4ccc(C(F)(F)F)cn34)n2)CCN1C1CC1` [I-500, N—((S)-1-((2S,3 S)-1-cyclopropyl-3-methyl-4-(2-(6-(trifluoromethyl)imidazo[1,2-a]pyridin-3-yl)pyrimidin-4-yl)piperazin-2-yl)ethyl)methanesulfonamide], for which the IC50 against GCN2 kinase is 100 to 1000 nM; in assay [1] it was 500 to 5000 nM.

With `C[C@@H]1CN(c2ccnc(-c3cnc4ccc(C(F)(F)F)cn34)n2)C[C@H](C)N1C(=O)CC1COC1` [I-501, 1-(cis-2,6-dimethyl-4-(2-(6-(trifluoromethyl)imidazo[1,2-a]pyridin-3-yl)pyrimidin-4-yl)piperazin-1-yl)-2-(oxetan-3-yl)ethan-1-one], the results for the IC50 (against GCN2 kinase; in assay [1]) were 100 to 1000 nM and 500 to 5000 nM, respectively.

With `FC(F)(F)c1ccc2ncc(-c3nccc(N4CCN(C5CC6(COC6)C5)[C@@H](c5cn[nH]c5)C4)n3)n2c1` [I-502, (S)-3-(4-(3-(1H-pyrazol-4-yl)-4-(2-oxaspiro[3.3]heptan-6-yl)piperazin-1-yl)pyrimidin-2-yl)-6-(trifluoromethyl)imidazo[1,2-a]pyridine], the results for the IC50 (against GCN2 kinase; in assay [1]) were 10 to 100 nM and below 500 nM, respectively.

Take `C[C@@H]1[C@H]([C@@H](C)NS(C)(=O)=O)N(C2CC2)CCN1c1ccnc(-c2cnc3ccc(C(F)(F)F)cn23)n1` [I-505, N—((R)-1-((2R,3R)-1-cyclopropyl-3-methyl-4-(2-(6-(trifluoromethyl)imidazo[1,2-a]pyridin-3-yl)pyrimidin-4-yl)piperazin-2-yl)ethyl)methanesulfonamide]: the IC50 against GCN2 kinase was 100 to 1000 nM; in assay [1], above 5000 nM.

In the case of `C[C@@H](NS(C)(=O)=O)[C@@H]1[C@H](C)N(c2ccnc(-c3cnc4ccc(C(F)(F)F)cn34)n2)CCN1C1CC1` [I-506, N—((R)-1-((2 S,3 S)-1-cyclopropyl-3-methyl-4-(2-(6-(trifluoromethyl)imidazo[1,2-a]pyridin-3-yl)pyrimidin-4-yl)piperazin-2-yl)ethyl)methanesulfonamide], the concentration for half-maximal inhibition (IC50) at GCN2 kinase was 10 to 100 nM; in assay [1], 500 to 5000 nM.

`C[C@H](NS(C)(=O)=O)[C@H]1[C@@H](C)N(c2ccnc(-c3cnc4ccc(C(F)(F)F)cn34)n2)CCN1C1CC1` [I-507, N—((S)-1-((2R,3R)-1-cyclopropyl-3-methyl-4-(2-(6-(trifluoromethyl)imidazo[1,2-a]pyridin-3-yl)pyrimidin-4-yl)piperazin-2-yl)ethyl)methanesulfonamide]: the IC50 at GCN2 kinase is 100 to 1000 nM; in assay [1], 500 to 5000 nM.

With `FC(F)(F)c1ccc2ncc(-c3ccnc(N4CCN(C5CC5)[C@H](c5cn[nH]c5)C4)n3)n2c1` [I-508, 3-{2-[(R)-4-Cyclopropyl-3-(1H-pyrazol-4-yl)-piperazin-1-yl]-pyrimidin-4-yl}-6-trifluoromethyl-imidazo[1,2-a]pyridine], the half-maximal inhibitory concentration (IC50) on GCN2 kinase is below 10 nM; in assay [1], below 500 nM.

As to `CC1(CN2CCN(c3ccnc(-c4cnc5ccc(C(F)(F)F)cn45)n3)CC2c2cn[nH]c2)CC1` (stereo not shown) [I-510, 3-(4-(4-((1-methylcyclopropyl)methyl)-3-(1H-pyrazol-4-yl)piperazin-1-yl)pyrimidin-2-yl)-6-(trifluoromethyl)imidazo[1,2-a]pyridine], the IC50 was below 10 nM on GCN2 kinase and below 500 nM in assay [1].

Regarding `COCC1(CN2CCN(c3ccnc(-c4cnc5ccc(C(F)(F)F)cn45)n3)[C@@H](C)[C@@H]2c2cn[nH]c2)CCC1` [I-512, 4-[(2S,3 S)-4-{[1-(methoxymethyl)cyclobutyl]methyl}-2-methyl-3-(1H-pyrazol-4-yl)piperazin-1-yl]-2-[6-(trifluoromethyl)imidazo[1,2-a]pyridin-3-yl]pyrimidine], the values for the IC50 (against GCN2 kinase; in assay [1]) were 100 to 1000 nM and 500 to 5000 nM, respectively.

Take `FC(F)(F)c1ccc2ncc(-c3nccc(N4CCN(C[C@@H]5CC56CCOCC6)[C@H](c5cn[nH]c5)C4)n3)n2c1` [I-520, 3-(4-((R)-4-(((R)-6-oxaspiro[2.5]octan-1-yl)methyl)-3-(1H-pyrazol-4-yl)piperazin-1-yl)pyrimidin-2-yl)-6-(trifluoromethyl)imidazo[1,2-a]pyridine]: the figures for the IC50 (against GCN2 kinase; in assay [1]) were 10 to 100 nM and below 500 nM, respectively.

As for `FC(F)(F)c1ccc2ncc(-c3nccc(N4CCN(C[C@H]5CC56CCOCC6)[C@@H](c5cn[nH]c5)C4)n3)n2c1` [I-521, 3-(4-((S)-4-(((S)-6-oxaspiro[2.5]octan-1-yl)methyl)-3-(1H-pyrazol-4-yl)piperazin-1-yl)pyrimidin-2-yl)-6-(trifluoromethyl)imidazo[1,2-a]pyridine], the IC50 was below 10 nM on GCN2 kinase and below 500 nM in assay [1].

Consider `FC(F)(F)c1ccc2ncc(-c3nccc(N4CCN(C[C@@H]5CC56CCOCC6)[C@@H](c5cn[nH]c5)C4)n3)n2c1` [I-522, 3-(4-((S)-4-(((R)-6-oxaspiro[2.5]octan-1-yl)methyl)-3-(1H-pyrazol-4-yl)piperazin-1-yl)pyrimidin-2-yl)-6-(trifluoromethyl)imidazo[1,2-a]pyridine], for which the IC50 against GCN2 kinase was below 10 nM; in assay [1] it was below 500 nM.

Turning to `FC(F)(F)c1ccc2ncc(-c3nccc(N4CCN(C[C@H]5CC56CCOCC6)[C@H](c5cn[nH]c5)C4)n3)n2c1` [I-523, 3-(4-((R)-4-(((S)-6-oxaspiro[2.5]octan-1-yl)methyl)-3-(1H-pyrazol-4-yl)piperazin-1-yl)pyrimidin-2-yl)-6-(trifluoromethyl)imidazo[1,2-a]pyridine], the IC50 on GCN2 kinase is 10 to 100 nM; in assay [1] it was below 500 nM.

Regarding `C[C@H]1CN(c2ccnc(-c3cnc4ccc(C(F)F)cn34)n2)C[C@@H](CO)O1` [I-524, ((2S,6S)-4-(2-(6-(difluoromethyl)imidazo[1,2-a]pyridin-3-yl)pyrimidin-4-yl)-6-methylmorpholin-2-yl)methanol], the half-maximal inhibitory concentration (IC50) against GCN2 kinase is 10 to 100 nM; in assay [1] it was 500 to 5000 nM.

On to `CS(=O)(=O)NC1CC(C(F)(F)F)CN(c2nccc(-c3cnc4ccc(C(F)F)cn34)n2)C1` (stereo not shown) [I-525, N-(1-(4-(6-(difluoromethyl)imidazo[1,2-a]pyridin-3-yl)pyrimidin-2-yl)-5-(trifluoromethyl)piperidin-3-yl)methanesulfonamide], for which the IC50 was 10 to 100 nM at GCN2 kinase and 500 to 5000 nM in assay [1].

As to `CC1(C)C[C@H]1CN1CCN(c2ccnc(-c3cnc4ccc(C(F)(F)F)cn34)n2)C[C@H]1c1cn[nH]c1` [I-526, 3-(4-((R)-4-(((R)-2,2-dimethylcyclopropyl)methyl)-3-(1H-pyrazol-4-yl)piperazin-1-yl)pyrimidin-2-yl)-6-(trifluoromethyl)imidazo[1,2-a]pyridine], the IC50 at GCN2 kinase is 10 to 100 nM; in assay [1] it was below 500 nM.
